Results as given in US8329645B2, “Polymyxin derivatives and uses thereof” (priority 2008, dated 2012).
Where a SMILES comes first, the peptide text is derived from it. Bridges are numbered along the chain shown (N, C = ends). [ ]: non-standard residue; d: D form. The star is where a group is joined. Octanoyl = CCCCCCCC(=O)*; Dab = NCC[C@H](N)C(=O)O; Abu = CC[C@H](N)C(=O)O

Columns and labels:
E. coli CCUG 41427 = conditions: CCUG 41427
Method: (§1) Polymyxin B sulfate (Sigma-Aldrich, St. Louis, Mo., USA) was used as a control. […] The bacterial test strains originated from ATCC (10 strains), CCUG (11 strains), and NCTC (3 strains). Fourteen (14) strains (the F-strains) were purchased from Mobidiag Ltd., Helsinki, Finland.
(§2) The inocula were prepared by adjusting the bacterial suspensions to a density equivalent to OD546 nm˜0.3 (˜10^8 CFU/ml˜0.5 McFarland) the yeast suspension to a density equivalent to OD546 nm˜0.75 (˜2×10^7 CFU/ml)._The suspensions were diluted to 10^7 CFU/ml. The plates were inoculated by using a Denley Multipoint Inoculator, 1 μl per spot corresponding to approx. 10^4 CFU/spot. Plates were incubated for 16-20 hours at 35° C.

E. coli F8 = conditions: F8
Method: as §1, §2

K. pneumoniae ATCC 13883 = conditions: ATCC 13883
Method: as §1, §2

E. coli CCUG 41432 = conditions: CCUG 41432
Method: as §1, §2

A. baumannii F263 = conditions: F263
Method: as §1, §2

E. coli F10 = conditions: F10
Method: as §1, §2

E. cloacae CCUG 52947 = conditions: CCUG 52947
Method: as §1, §2

A. baumannii ATCC 19606 = conditions: ATCC 19606
Method: as §1, §2

C. albicans ATCC 28366 = conditions: ATCC 28366
Method: as §1, §2

K. oxytoca ATCC 13182 = conditions: ATCC 13182
Method: as §1, §2

E. coli NCTC 13352 = conditions: NCTC 13352
Method: as §1, §2

E. coli IH3080 = conditions: IH3080
Method: as §1, §2

[1] = test system: S. maltophilia ATCC 17444; conditions: ATCC 17444
Method: as §1, §2

K. oxytoca CCUG 51683 = conditions: CCUG 51683
Method: as §1, §2

E. coli F19 = conditions: F19
Method: as §1, §2

S. marcescens ATCC 8100 = conditions: ATCC 8100
Method: as §1, §2

E. cloacae F231 = conditions: F231
Method: as §1, §2

P. aeruginosa F58 = conditions: F58
Method: as §1, §2

E. cloacae ATCC 23355 = conditions: ATCC 23355
Method: as §1, §2

E. coli F9 = conditions: F9
Method: as §1, §2

P. aeruginosa ATCC 27853 = conditions: ATCC 27853
Method: as §1, §2

E. coli NCTC 13353 = conditions: NCTC 13353
Method: as §1, §2

E. coli CCUG 41429 = conditions: CCUG 41429
Method: as §1, §2

E. coli ATCC 25922 = conditions: ATCC 25922
Method: as §1, §2

S. aureus ATCC 25923 = conditions: ATCC 25923
Method: as §1, §2

E. cloacae F230 = conditions: F230
Method: as §1, §2

K. pneumoniae F144 = conditions: F144
Method: as §1, §2

K. pneumoniae CCUG 45421 = conditions: CCUG 45421
Method: as §1, §2

C. freundii ATCC 8090 = conditions: ATCC 8090
Method: as §1, §2

E. coli CCUG 41425 = conditions: CCUG 41425
Method: as §1, §2

K. pneumoniae F136 = conditions: F136
Method: as §1, §2

E. cloacae F232 = conditions: F232
Method: as §1, §2

K. pneumoniae F145 = conditions: F145
Method: as §1, §2

E. coli CCUG 41424 = conditions: CCUG 41424
Method: as §1, §2

P. aeruginosa CCUG 51971 = test system: P. aeruginosa CCUG 51971
Method: as §1, §2

Measured: MIC

CCCCCCCC(=O)N[C@H](C(=O)N[C@@H](CC)C(=O)N[C@H]1CCNC(=O)[C@H]([C@@H](C)O)NC(=O)[C@H](CCN)NC(=O)[C@H](CCN)NC(=O)[C@H](CC(C)C)NC(=O)[C@@H](Cc2ccccc2)NC(=O)[C@H](CCN)NC1=O)[C@@H](C)O [NAB 7061, OA-Thr-Abu-cy[Dab-Dab-DPhe-Leu-Dab-Dab-Thr-]] (Octanoyl-T[Abu][Dab][Dab][dF]L[Dab][Dab]T; lactam 3-C)
16 mg/L: E. coli CCUG 41429 | C. freundii ATCC 8090
32 mg/L: K. oxytoca ATCC 13182 | E. coli NCTC 13352 | K. oxytoca CCUG 51683 | E. coli F19 | E. cloacae F231 | E. cloacae ATCC 23355 | E. coli CCUG 41424
>32 mg/L: all other assays above
